The values that follow come from patent EP0621342A1, “Reagent and kit for determining isoprenylating activity and inhibition thereof” (NEDERLANDSE ORGANISATIE VOOR …, priority 1993, dated 1994).

The experiment deals with protein:farnesyltransferase (Oryctolagus cuniculus, UniProt G1SFC8+G1T7D9). Description: Inhibition of protein:farnesyl transferase activity in rabbit reticulocyte lysate (Sepharose-bound peptide, 3H-FPP). Particulars: 80 pmol of pepAsep and pepBsep/5 µl beads, 0.7 µM ³H-FPP, 30 min at 37°C, read-out: IC₅₀-value. Type of experiment: biochemical. As to the method:
Commercially available rabbit reticulocyte lysate contains enzymes necessary for protein-isoprenylation, such as protein:farnesyl transferase activity (Vorburger, K., Kitten, G.T. and Nigg, E.G., EMBO J. 8 (1989) 4007-4013) and protein:geranylgeranyl transferase (Maltese, W.A. and Robishaw, J.D., J. Biol. Chem. 265 (1990) 18071-18074). Using pepAsep (example I) as substrate and pepBsep (example I) as control the assay of protein:farnesyl transferase activity was performed as follows: In 25 µl of a mixture containing 5 µl of pepAsep or pepBsep (both containing an equal quantity of peptide), 13 µl rabbit reticulocyte lysate (Promega), 0.5 mM MgCl₂, 1 mM DTT, 50 mM Tris-HCl (pH 7.4) and [³H]-farnesyl pyrophosphate (³H-FPP; concentration as indicated in the figures; specific radioactivity 15 Ci/mmol; ARC, USA) the incubation was performed at 37°C for 30 min with continuous shaking. […] The radioactivity bound to the Sepharose was measured in a Packard Tricarb liquid scintillation counter. […]
80 pmol of pepAsep and pepBsep/5 µl Sepharose were incubated for 30 minutes in the presence of 0.7 µM of [³H]-FPP and the indicated concentrations of the farnesyl pyrophosphate analogues FPPA1 and FPPA2 as mentioned in Example IV. The farnesylation activity was calculated as ³H-dpm bound to pepAsep minus the pepBsep-bound-dpm and expressed as percentage of control (without inhibitor). […]

The structures appear in SMILES notation.

Turning to `CC(C)=CCC/C(C)=C/CC/C(C)=C/COCP(=O)(O)CP(=O)(O)O` [FPPA1, (E,E) -[Hydroxy-(3,7,11-trimethyl-2,6,10-dodecatrienyloxymethylphosphinyl)methyl]phosphonic acid], the IC50 worked out at 5.26 ± 1.1 µM.
`CC(C)=CCCC(C)=CCCC(C)=CCP(=O)(O)OP(=O)(O)O` [FPPA2, farnesyl phosphonophosphate]: the IC50 was 0.29 ± 0.02 µM.
